Measurements taken from PubChem BioAssay AID248 (DTP/NCI, 2004).
Values joined by “and” are separate entries in the source; they are usually repeats but may differ in a detail not shown here. Identical values can stand only once. Inconclusive results and toxic doses are left out. Rule as the data show it: active = T/C of 150% or more; inactive = T/C below 125%.

System: L1210 leukemia ip in BDF1 mice, survival T/C
Experiment: NCI In Vivo Anticancer Drug Screen. Data for tumor model L1210 Leukemia (intraperitoneal) in B6D2F1 (BDF1) mice
Settings: endpoint: mean survival time, higher = longer survival
How it was run: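 Value reflects the ratio of survival in compound-treated mice to survival in vehicle-treated controls, with both groups carrying the same transplanted tumor.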

[1] = dose: 100.0 mg/kg/injection, schedule: Q01DX001 (ip), vehicle: other
[2] = dose: 200.0 mg/kg/injection, schedule: Q01DX001 (ip), vehicle: other
[3] = dose: 400.0 mg/kg/injection, schedule: Q01DX001 (ip), vehicle: other
[4] = dose: 100.0 mg/kg/injection, schedule: Q01DX009 (ip), vehicle: Klucel (hydroxypropylcellulose) (HPC)
[5] = dose: 200.0 mg/kg/injection, schedule: Q01DX009 (ip), vehicle: Klucel (hydroxypropylcellulose) (HPC)
[6] = dose: 100.0 mg/kg/injection, schedule: Q01DX001 (ip), vehicle: saline
[7] = dose: 400.0 mg/kg/injection, schedule: Q01DX009 (ip), vehicle: Klucel (hydroxypropylcellulose) (HPC)
[8] = dose: 100.0 mg/kg/injection, schedule: Q01DX001 (ip), vehicle: Klucel (hydroxypropylcellulose) (HPC)
[9] = dose: 200.0 mg/kg/injection, schedule: Q01DX001 (ip), vehicle: Klucel (hydroxypropylcellulose) (HPC)
[10] = dose: 400.0 mg/kg/injection, schedule: Q01DX001 (ip), vehicle: Klucel (hydroxypropylcellulose) (HPC)
[11] = dose: 50.0 mg/kg/injection, schedule: Q01DX001 (ip), vehicle: carboxymethylcellulose (CMC)
[12] = dose: 100.0 mg/kg/injection, schedule: Q01DX001 (ip), vehicle: carboxymethylcellulose (CMC)
[13] = dose: 200.0 mg/kg/injection, schedule: Q01DX001 (ip), vehicle: carboxymethylcellulose (CMC)
[14] = dose: 400.0 mg/kg/injection, schedule: Q01DX001 (ip), vehicle: carboxymethylcellulose (CMC)
[15] = dose: 50.0 mg/kg/injection, schedule: Q01DX009 (ip), vehicle: saline
[16] = dose: 100.0 mg/kg/injection, schedule: Q01DX009 (ip), vehicle: saline
[17] = dose: 200.0 mg/kg/injection, schedule: Q01DX009 (ip), vehicle: saline
[18] = dose: 50.0 mg/kg/injection, schedule: Q04DX003 (ip), vehicle: saline with Tween-80
[19] = dose: 100.0 mg/kg/injection, schedule: Q04DX003 (ip), vehicle: saline with Tween-80
[20] = dose: 100.0 mg/kg/injection, schedule: Q04DX002 (ip), vehicle: Klucel (hydroxypropylcellulose) (HPC)
[21] = dose: 200.0 mg/kg/injection, schedule: Q04DX002 (ip), vehicle: Klucel (hydroxypropylcellulose) (HPC)

Measured: T/C

COC(=O)C(C(C)C)N(C)C(=O)OC(C)(C)C (stereo not drawn)
inactive: [1] 104 % of control | [2] 102 % of control | [3] 100 % of control

Cn1c(O)c(N=NC(N)=S)c2ccccc21
inactive: dose: 3.0 mg/kg/injection, schedule: Q01DX015 (ip), vehicle: carboxymethylcellulose (CMC) 96 % of control | dose: 6.0 mg/kg/injection, schedule: Q01DX015 (ip), vehicle: carboxymethylcellulose (CMC) 103 % of control | dose: 12.0 mg/kg/injection, schedule: Q01DX015 (ip), vehicle: carboxymethylcellulose (CMC) 97 % of control | dose: 25.0 mg/kg/injection, schedule: Q01DX015 (ip), vehicle: carboxymethylcellulose (CMC) 106 % of control | dose: 50.0 mg/kg/injection, schedule: Q01DX015 (ip), vehicle: carboxymethylcellulose (CMC) 103 % of control | dose: 62.5 mg/kg/injection, schedule: Q01DX015 (ip), vehicle: carboxymethylcellulose (CMC) 107 % of control

CC1=CC2c3c([nH]c(=S)[nH]c3=O)OC(C)(C)C2CC1 (stereo not drawn)
inactive: dose: 50.0 mg/kg/injection, schedule: Q01DX009 (ip), vehicle: Klucel (hydroxypropylcellulose) (HPC) 99 % of control | [4] 96 % of control | [5] 96 % of control

CCCCC[As](=O)(O)CCCCC
inactive: dose: 5.0 mg/kg/injection, schedule: Q01DX001 (ip), vehicle: saline 104 % of control | dose: 10.0 mg/kg/injection, schedule: Q01DX001 (ip), vehicle: saline 106 % of control | dose: 40.0 mg/kg/injection, schedule: Q01DX001 (ip), vehicle: saline 115 % of control | [6] 94 % of control

S=P(c1ccccc1)(c1ccccc1)c1ccccc1
inactive: dose: 50.0 mg/kg/injection, schedule: Q04DX002 (ip), vehicle: saline 96 % of control | dose: 100.0 mg/kg/injection, schedule: Q04DX002 (ip), vehicle: saline 93 % of control | dose: 200.0 mg/kg/injection, schedule: Q04DX002 (ip), vehicle: saline 96 % of control

CC(=O)N(C)c1ccc(NC(=O)Nc2ccccc2C(F)(F)F)cc1
inactive: [4] 95 % of control | [5] 93 % of control | [7] 103 % of control

COC(=O)CCC(NC(=O)CCCNC(=O)OCc1ccccc1)C(=O)OC (stereo not drawn)
inactive: [8] 96 % of control | [1] 97 % of control | [4] 100 % of control | dose: 100.0 mg/kg/injection, schedule: Q04DX003 (ip), vehicle: Klucel (hydroxypropylcellulose) (HPC) 94 % of control | [9] 98 % of control | [2] 100 % of control | [5] 97 % of control | dose: 200.0 mg/kg/injection, schedule: Q04DX003 (ip), vehicle: Klucel (hydroxypropylcellulose) (HPC) 89 % of control | [10] 89 % of control | [3] 103 % of control | [7] 100 % of control | dose: 400.0 mg/kg/injection, schedule: Q04DX003 (ip), vehicle: Klucel (hydroxypropylcellulose) (HPC) 86 % of control

O=C(CCl)NC1=C(Cl)C(=O)c2ccccc2C1=O
inactive: dose: 75.0 mg/kg/injection, schedule: Q01DX001 (ip), vehicle: saline 93 % of control

CCOC(=O)NP(=O)(NNc1ccccc1)NNc1ccccc1
inactive: [11] 104 % of control | [12] 89 % of control | [13] 95 % of control | [14] 89 % of control

CC(=O)OC12C=C(C)C(C3C(=O)OC(=O)C31)C(C)(C)C2 (stereo not drawn)
inactive: [15] 97 % of control | [16] 92 % of control | [17] 102 % of control

Clc1ccc(OCc2sc3ccc(Cl)cc3c2CN2CCCCC2)cc1
inactive: dose: 25.0 mg/kg/injection, schedule: Q04DX003 (ip), vehicle: saline with Tween-80 88 % of control | [18] 87 % of control | [19] 90 % of control and 92 % of control

Cc1cccc(NC(C(=O)O)c2ccccc2)c1 (stereo not drawn)
inactive: [20] 100 % of control | [21] 93 % of control | dose: 400.0 mg/kg/injection, schedule: Q04DX002 (ip), vehicle: Klucel (hydroxypropylcellulose) (HPC) 89 % of control

COC1/C=C/OC2(C)Oc3c(C)c(O)c4c(O)c(c(/C=N/NC5CCCCCCCCCCCCCC5)c(O)c4c3C2=O)NC(=O)/C(C)=C\C=C\C(C)C(O)C(C)C(O)C(C)C(OC(C)=O)C1C (stereo not drawn)
inactive: dose: 100.0 mg/kg/injection, schedule: Q01DX003 (ip), vehicle: saline with Tween-80 95 % of control | dose: 200.0 mg/kg/injection, schedule: Q01DX003 (ip), vehicle: saline with Tween-80 95 % of control | dose: 400.0 mg/kg/injection, schedule: Q01DX003 (ip), vehicle: saline with Tween-80 102 % of control

COc1cc2c(cc1OC)[C@H]1CNC[C@H]1[C@@H](c1ccccc1)C2
inactive: [15] 95 % of control | [16] 106 % of control | dose: 100.0 mg/kg/injection, schedule: Q04DX003 (ip), vehicle: saline 97 % of control | [17] 106 % of control | dose: 200.0 mg/kg/injection, schedule: Q04DX003 (ip), vehicle: saline 106 % of control

Nc1ccccc1C(=O)ONC(=O)c1ccccc1
inactive: dose: 100.0 mg/kg/injection, schedule: Q04DX003 (ip), vehicle: carboxymethylcellulose (CMC) 97 % of control | dose: 200.0 mg/kg/injection, schedule: Q04DX003 (ip), vehicle: carboxymethylcellulose (CMC) 93 % of control | dose: 400.0 mg/kg/injection, schedule: Q04DX003 (ip), vehicle: carboxymethylcellulose (CMC) 92 % of control

O=c1nc2n(c(=O)[nH]1)CCN2
inactive: [11] 101 % of control | [12] 101 % of control | [13] 104 % of control | [14] 106 % of control

Nc1nc(SCc2ccccc2Cl)cc(C(=O)O)n1
inactive: dose: 50.0 mg/kg/injection, schedule: Q01DX Z (ip), vehicle: methylcellulose (MC) 102 % of control

Fc1cccc(CSC(=S)Nc2ccc(Cl)c(Cl)c2)c1
inactive: [18] 101 % of control | [19] 104 % of control

CCc1c(C=O)[nH]c(=S)n(C)c1=O
inactive: [8] 104 % of control | [4] 108 % of control | [9] 98 % of control | [5] 88 % of control | [10] 101 % of control | [7] 98 % of control

CCOC(=O)N1CCC2(CC1)CC(=O)N(N1CCCCCC1)C2=O
inactive: [20] 93 % of control | [21] 93 % of control

C=CCCCCCCCC/C=N\NC(=O)c1ccc[n+](C)c1
inactive: [15] 106 % of control | [16] 100 % of control

COC(=O)C(CSCSC)NC(=O)/C=C/c1ccco1 (stereo not drawn)
inactive: dose: 25.0 mg/kg/injection, schedule: Q01DX009 (ip), vehicle: saline with Tween-80 107 % of control | dose: 50.0 mg/kg/injection, schedule: Q01DX009 (ip), vehicle: saline with Tween-80 107 % of control | dose: 100.0 mg/kg/injection, schedule: Q01DX009 (ip), vehicle: saline with Tween-80 102 % of control and 91 % of control | [19] 93 % of control | dose: 200.0 mg/kg/injection, schedule: Q04DX003 (ip), vehicle: saline with Tween-80 101 % of control | dose: 400.0 mg/kg/injection, schedule: Q04DX003 (ip), vehicle: saline with Tween-80 95 % of control

CCC(=O)Cc1ccc2[nH]c(C)cc(=O)c2c1
inactive: [6] 96 % of control | dose: 200.0 mg/kg/injection, schedule: Q01DX001 (ip), vehicle: saline 98 % of control | dose: 400.0 mg/kg/injection, schedule: Q01DX001 (ip), vehicle: saline 88 % of control

CCCC(O)C(CC)CO (stereo not drawn)
inactive: [16] 102 % of control | [17] 100 % of control | dose: 400.0 mg/kg/injection, schedule: Q01DX009 (ip), vehicle: saline 104 % of control
